We go through ten compounds from PubChem BioAssay (NCI).

Several values for one entry are separate records, joined by “and”; a condition that tells them apart may be missing. Identical values can stand only once.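 Values below derive from 48-hour exposures of cells grown in 96-well plates, with endpoints linearly interpolated between the two concentrations bracketing the appropriate inhibition level. Abbreviation: GI50, concentration required for 50% inhibition of growth. TGI denotes the concentration required for complete inhibition of growth.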 A value given as a limit tells only on which side of the number the result lay.

Among the test systems are ACHN renal; DU-145 prostate; HCT-116 colon; HCT-15 colon; MALME-3M melanoma; SF-539 CNS; SK-OV-3 ovarian; SNB-19 CNS; DMS 114 small cell lung; LXFL 529 NSCLC; SNB-78 CNS.
What all share (test): growth of human tumour cells (NCI), 48 h

For the compound `CCCC(c1cc(C(C)(C)C)c(O)cc1C)c1cc(C(C)(C)C)c(O)cc1C`, the TGI in the assay with ACHN renal worked out at 7.4 µM; in the assay on DU-145 prostate, 14.7 µM; in the assay with HCT-116 colon, 3.96 µM; in the assay with HCT-15 colon, 11.4 µM; in the assay with MALME-3M melanoma it was 9.78 µM; in the assay with SF-539 CNS it was 4.7 µM. Further, the TGI in the assay with SK-OV-3 ovarian was determined as 12.4 µM; with SNB-19 CNS, 16.9 µM.

Take `CC12OC(C(=O)C13CC3)C1C(=O)c3cccc(O)c3C(=O)C12` (stereo unspecified): the GI50 is 2.95 µM with ACHN renal; 15.3 µM in the assay with DU-145 prostate; 4.31 µM in the assay on HCT-116 colon; 9.82 µM in the assay on HCT-15 colon; 5.31 µM with MALME-3M melanoma; 5.36 µM in the assay on SF-539 CNS. Also, the GI50 in the assay with SK-OV-3 ovarian is 22.9 µM; with SNB-19 CNS, 10.4 µM. The TGI was over 39.1 µM with ACHN renal; 56.2 µM in the assay on DU-145 prostate; 6.42 µM in the assay with HCT-116 colon; over 54.8 µM with HCT-15 colon; 14 µM in the assay with MALME-3M melanoma; over 56.1 µM in the assay with SF-539 CNS. In addition, the values for the TGI in the assay with SK-OV-3 ovarian and in the assay on SNB-19 CNS were over 75.3 µM and 40.1 µM, respectively.

For `CC(C)[C@]12O[C@H]1[C@@H]1O[C@]13[C@]1(O[C@H]1C[C@H]1C4=C(CC[C@@]13C)C(=O)OC4)[C@@H]2OC(=O)OC(C)(C)C`, the GI50 in the assay on ACHN renal is 0.0107 µM; in the assay on DU-145 prostate, 0.0204 µM; with HCT-116 colon it was under 0.0107 µM; in the assay on HCT-15 colon, 0.0253 µM; with MALME-3M melanoma it was 0.0166 µM; in the assay with SF-539 CNS, 0.0217 µM. The GI50 in the assay on SK-OV-3 ovarian was 0.0402 µM; in the assay with SNB-19 CNS it was 0.128 µM. For the same compound, the TGI in the assay on ACHN renal is over 100 µM; with DU-145 prostate it was over 100 µM; in the assay with HCT-116 colon it was over 100 µM; in the assay on HCT-15 colon it was over 100 µM; with MALME-3M melanoma, 0.0555 µM; with SF-539 CNS, 0.294 µM. For the same compound, the TGI with SK-OV-3 ovarian and in the assay on SNB-19 CNS was over 100 µM each time.

In the case of `OC1CCC(COC(c2ccccc2)(c2ccccc2)c2ccccc2)O1` (stereo unspecified), the TGI in the assay with ACHN renal came out at 31.1 µM; with DU-145 prostate, 38.3 µM; in the assay on HCT-116 colon, 30.4 µM; with HCT-15 colon, 44.5 µM; with MALME-3M melanoma it was 42.3 µM; in the assay with SF-539 CNS it was 32.5 µM. Moreover, the TGI with SK-OV-3 ovarian was found to be 36.6 µM; in the assay with SNB-19 CNS, 40 µM.

Regarding `CSc1nc(SC)c2cnn(-c3ccnc4cc(Cl)ccc34)c2n1`, the GI50 in the assay on ACHN renal was 42 µM; in the assay with DU-145 prostate, 42.6 µM; in the assay on HCT-116 colon, 52.9 µM; with HCT-15 colon, over 71.3 µM; in the assay with MALME-3M melanoma, 32.9 µM; with SF-539 CNS it was 29.1 µM. The GI50 in the assay with SK-OV-3 ovarian was over 81.1 µM; in the assay on SNB-19 CNS, over 100 µM. Further, the TGI is over 86.8 µM in the assay with ACHN renal; over 67 µM with DU-145 prostate; over 100 µM in the assay with HCT-116 colon; over 100 µM with HCT-15 colon; over 100 µM in the assay on MALME-3M melanoma; over 62.4 µM in the assay with SF-539 CNS. Also, the TGI in the assay on SK-OV-3 ovarian and with SNB-19 CNS was over 100 µM each time.

As to `COC(=O)CC12CC(NC(=O)c3csc([C@@H](C[C@H](C(C)C)N(C)C(=O)[C@@H](NC(=O)[C@H]4CCCCN4C)C(C)C)OC(C)=O)n3)(C1)C2`, the GI50 was 0.026 µM in the assay with ACHN renal; 0.00352 µM and 0.00825 µM in the assay on DU-145 prostate; 0.00337 µM and 0.00778 µM in the assay with HCT-116 colon; 0.0183 µM and 0.0254 µM in the assay on HCT-15 colon; 0.00491 µM in the assay with MALME-3M melanoma; 0.00289 µM and 0.00759 µM in the assay with SF-539 CNS. The GI50 is 0.00439 µM and 0.0105 µM with SK-OV-3 ovarian; 0.0031 µM and 0.0114 µM with SNB-19 CNS. Further, the TGI in the assay on ACHN renal is over 33.3 µM; in the assay on HCT-116 colon it was over 33.3 µM; with HCT-15 colon it was over 33.3 µM; with SF-539 CNS it was 0.0198 µM and 0.0269 µM; in the assay on SK-OV-3 ovarian, over 33.3 µM; in the assay on SNB-19 CNS, over 33.3 µM.

In the case of `NS(=O)(=O)c1ccc(N=Nc2c(O)[nH]c3cccc(CCc4ccncc4)c23)cc1`, the GI50 in the assay with ACHN renal, in the assay with DU-145 prostate, in the assay on HCT-116 colon, in the assay with HCT-15 colon, in the assay on MALME-3M melanoma and with SF-539 CNS was over 25 µM throughout. In addition, the GI50 with SK-OV-3 ovarian and in the assay on SNB-19 CNS was over 25 µM in each case. The TGI in the assay on ACHN renal, with DU-145 prostate, with HCT-116 colon, in the assay with HCT-15 colon, in the assay with MALME-3M melanoma and in the assay with SF-539 CNS was over 25 µM in each case. Moreover, the TGI with SK-OV-3 ovarian and in the assay on SNB-19 CNS was over 25 µM throughout.

Turning to `COc1cc2cc(Oc3ccc(NC(=O)Nc4ccc(F)c(C(F)(F)F)c4)cc3)c(C)nc2cc1OCCN1CCOCC1`, the GI50 in the assay on ACHN renal is 2.3 µM; in the assay on DU-145 prostate, 3.5 µM; in the assay on HCT-116 colon it was 1.11 µM; in the assay on HCT-15 colon, 1.73 µM; in the assay with MALME-3M melanoma, 1.57 µM; in the assay with SF-539 CNS it was 1.77 µM. Besides, the results for the GI50 in the assay with SK-OV-3 ovarian and in the assay on SNB-19 CNS were 3.76 µM and 3.96 µM, respectively. The TGI came out at 11.4 µM with ACHN renal; 15.2 µM in the assay on DU-145 prostate; 11.2 µM with HCT-116 colon; 4.19 µM in the assay on HCT-15 colon; 3.24 µM in the assay with MALME-3M melanoma; 3.44 µM in the assay with SF-539 CNS. The TGI in the assay with SK-OV-3 ovarian stood at 26.7 µM; in the assay on SNB-19 CNS, 19.3 µM.

With `Cc1cc2c(=O)cc(-c3ccc(C(=O)O)cc3)oc2c(C(N)=O)c1C`, the TGI with ACHN renal, in the assay on DMS 114 small cell lung, with HCT-116 colon, with HCT-15 colon, with LXFL 529 NSCLC and in the assay on MALME-3M melanoma was over 100 µM each time. Further, the TGI with SF-539 CNS, with SK-OV-3 ovarian, in the assay on SNB-19 CNS and in the assay on SNB-78 CNS was over 100 µM each time.

Take `CN(CCNc1ccc(C(=N)N)cc1)c1ccc(C(=N)N)cc1`: the GI50 with ACHN renal is over 100 µM; in the assay on DU-145 prostate, 19.2 µM; with HCT-116 colon, over 100 µM; in the assay on HCT-15 colon, 31.2 µM; in the assay on MALME-3M melanoma, 26.6 µM; with SF-539 CNS, 35.1 µM. The GI50 with SK-OV-3 ovarian is 34.5 µM; in the assay with SNB-19 CNS, 27.8 µM. For the same compound, the TGI in the assay on ACHN renal, with DU-145 prostate, with HCT-116 colon, in the assay with HCT-15 colon, with MALME-3M melanoma and in the assay with SF-539 CNS was over 100 µM each time. Besides, the TGI in the assay on SK-OV-3 ovarian and in the assay with SNB-19 CNS was over 100 µM throughout.
